# Test results published in article PMC7058083, “Structural basis of ligand binding modes at the human formyl peptide receptor 2” (Nature Communications, 2020).
# Substitutions are numbered along the chain they refer to.
# Tests used:
# Assay in all cases: Saturation binding of WK(FITC)YMVm, flow cytometry on HEK293F cells
# [1] = target: T1, wild-type (WT) and mutant FPR2 (Homo sapiens, UniProt P25090, H102F); settings: FPR2 H102F
# T1 construct: expressed in transfected cells; host or cells: HEK293F
# T1 sequence (P25090 1-351 H102F): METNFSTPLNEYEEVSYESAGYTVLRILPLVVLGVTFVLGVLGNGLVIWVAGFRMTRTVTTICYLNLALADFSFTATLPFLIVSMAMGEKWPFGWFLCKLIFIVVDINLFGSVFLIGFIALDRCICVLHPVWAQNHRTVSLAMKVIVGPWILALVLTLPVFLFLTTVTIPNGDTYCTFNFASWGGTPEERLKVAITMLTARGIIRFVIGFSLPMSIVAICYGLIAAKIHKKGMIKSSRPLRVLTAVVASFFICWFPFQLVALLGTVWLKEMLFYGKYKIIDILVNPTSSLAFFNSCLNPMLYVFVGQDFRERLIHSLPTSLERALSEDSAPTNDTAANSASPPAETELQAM
# Description: (§1) Flag-tagged wild-type and mutant FPR2s were cloned into the pTT5 vector and expressed in HEK293F cells. The cells were harvested, and washed with Hanks’ Balanced Salt Solution (HBSS) buffer supplemented with 0.5% bovine serum albumin and 20 mM HEPES, pH 7.4. The cells were then resuspended in the same buffer to the final concentration of 1 × 10^6 cells per ml. The cell-surface expression was measured as mentioned above. […] Mean fluorescent intensity of each well was then read by a FCM (flow cytometry) reader (Millipore). […] For competitive binding of fMLFK, cells were plated in 96-well plates (100,000 cells per well), and incubated with WK(FITC)YMVm at 4 °C for 1 h. The following concentrations of WK(FITC)YMVm were used: 10 nM (wild type, L81^2.60F, E89G, and V105^3.32A), 30 nM (D281^7.32G), 40 nM (H102^3.29F, V160^4.60A, L268^ECL3A, N285^7.36A, and F292^7.43A), and 100 nM (L164^4.64A and T177A). Then increasing concentrations of fMLFK (100 nM–1 mM) were added, and incubated for another 1 h on ice. Mean fluorescent intensity values were measured by flow cytometry. Data were analyzed using Prism 7.0.
# [2] = target: T2, wild-type (WT) and mutant FPR2 (Homo sapiens, UniProt P25090, T177A); settings: FPR2 T177A
# T2 construct: expressed in transfected cells; host or cells: HEK293F
# T2 sequence (P25090 1-351 T177A): T1 sequence (P25090 1-351 H102F) with F102H, T177A
# Description: as §1
# [3] = target: T3, wild-type (WT) and mutant FPR2 (Homo sapiens, UniProt P25090, S211L)
# T3 construct: expressed in transfected cells; host or cells: HEK293F
# T3 sequence (P25090 other isoform, or with tags, fused parts or gaps S211L): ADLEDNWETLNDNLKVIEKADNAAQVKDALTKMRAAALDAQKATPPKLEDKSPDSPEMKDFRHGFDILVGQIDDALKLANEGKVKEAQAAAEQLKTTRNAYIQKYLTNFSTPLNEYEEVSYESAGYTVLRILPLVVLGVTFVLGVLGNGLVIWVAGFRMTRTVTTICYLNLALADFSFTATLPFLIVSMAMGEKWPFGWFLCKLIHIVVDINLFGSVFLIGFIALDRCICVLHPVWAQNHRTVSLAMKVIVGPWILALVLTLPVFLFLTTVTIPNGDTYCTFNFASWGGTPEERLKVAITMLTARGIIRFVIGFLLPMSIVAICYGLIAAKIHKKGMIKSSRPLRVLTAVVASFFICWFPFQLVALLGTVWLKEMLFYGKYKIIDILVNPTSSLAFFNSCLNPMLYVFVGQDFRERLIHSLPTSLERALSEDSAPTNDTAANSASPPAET
# Description: as §1
# [4] = target: T4, wild-type (WT) and mutant FPR2 (Homo sapiens, UniProt P25090, V105A); settings: FPR2 V105A
# T4 construct: expressed in transfected cells; host or cells: HEK293F
# T4 sequence (P25090 1-351 V105A): T1 sequence (P25090 1-351 H102F) with F102H, V105A
# Description: as §1
# [5] = target: T5, wild-type (WT) and mutant FPR2 (Homo sapiens, UniProt P25090, D281G); settings: FPR2 D281G
# T5 construct: expressed in transfected cells; host or cells: HEK293F
# T5 sequence (P25090 1-351 D281G): T1 sequence (P25090 1-351 H102F) with F102H, D281G
# Description: as §1
# [6] = target: T6, wild-type (WT) and mutant FPR2 (Homo sapiens, UniProt P25090, V160A); settings: FPR2 V160A
# T6 construct: expressed in transfected cells; host or cells: HEK293F
# T6 sequence (P25090 1-351 V160A): T1 sequence (P25090 1-351 H102F) with F102H, V160A
# Description: as §1
# [7] = target: T7, wild-type (WT) and mutant FPR2 (Homo sapiens, UniProt P25090, R205A); settings: mutant R205A
# T7 construct: expressed in transfected cells; host or cells: HEK293F
# T7 sequence (P25090 whole entry R205A): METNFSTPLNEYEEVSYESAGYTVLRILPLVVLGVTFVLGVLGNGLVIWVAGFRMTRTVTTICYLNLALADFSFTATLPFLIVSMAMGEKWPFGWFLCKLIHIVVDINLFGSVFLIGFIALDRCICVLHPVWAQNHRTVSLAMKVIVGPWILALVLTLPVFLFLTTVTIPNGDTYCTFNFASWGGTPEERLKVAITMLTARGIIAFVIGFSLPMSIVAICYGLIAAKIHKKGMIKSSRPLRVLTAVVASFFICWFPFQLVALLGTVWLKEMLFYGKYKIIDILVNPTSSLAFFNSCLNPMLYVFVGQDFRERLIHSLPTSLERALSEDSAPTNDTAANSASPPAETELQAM
# Description: as §1
# [8] = test system: wild-type (WT) and mutant FPR2; set-up: species or system human
# Description: as §1
structure (smiles),measurement,setting,value
CSCC[C@H](NC(=O)[C@H](Cc1ccc(O)cc1)NC(=O)[C@H](CCCCNC(=S)Nc1ccc2c(c1)C(=O)OC21c2ccc(O)cc2Oc2cc(O)ccc21)NC(=O)[C@@H](N)Cc1c[nH]c2ccccc12)C(=O)N[C@H](C(=O)N[C@H](CCSC)C(N)=O)C(C)C [WK(FITC)YMVm],"Span (% of WT), saturation binding",[1],44 ± 4 % of WT
same,Kd,"[1]; mean ± s.e.m., n=3, SEM",43.5 ± 16.0 nM
same,"Span (% of WT), saturation binding",[2],66 ± 5 % of WT
same,Kd,"[2]; mean ± s.e.m., n=3, SEM",109 ± 34 nM
same,"Span (% of WT), saturation binding",[3]; FPR2 crystallization construct,154 ± 21 % of WT
same,Kd,"[3]; FPR2 crystallization construct (N-terminal bRIL, S211L, 5 C-terminal residues truncated), mean ± s.e.m., n=5, SEM",27.7 ± 5.6 nM
same,"Span (% of WT), saturation binding",[4],68 ± 15 % of WT
same,Kd,"[4]; mean ± s.e.m., n=4, SEM",25.7 ± 7.5 nM
same,"Span (% of WT), saturation binding",[5],39 ± 3 % of WT
same,Kd,"[5]; mean ± s.e.m., n=4, SEM",34.3 ± 14.1 nM
same,"Span (% of WT), saturation binding",[6],30 ± 4 % of WT
same,Kd,"[6]; mean ± s.e.m., n=4, SEM",36.1 ± 18.1 nM
same,WK(FITC)YMVm binding,[7],complete loss
same,reduction of binding affinity of WK(FITC)YMVm,[8]; mutant F257Y vs WT,7 fold
same,binding of WK(FITC)YMVm,[8]; mutants D281G and D281L,decreased binding
same,binding of WK(FITC)YMVm,[8]; mutations D106A and R201A,significantly impaired
same,binding of FPR2 to WK(FITC)YMVm,"[8]; mutations V105F, L109A, F110A, V113A, L164W, F178A, F180A, W254A, F257A and M271A",abolish the binding
